Counter-ions that a name gives are not always drawn.

In assay [1] the test system is nicotinic and muscarinic receptors. The following applies: cited from earlier work.
Another assay concerns rats. The note with it: cited from earlier work.
A further assay concerns the target muscarinic receptors. As to the kind of experiment: Inhibition of 3H-oxotremorine-M binding to hippocampal membranes. The note with it: [3H]oxotremorine ([3H]OXO) binding, muscarinic receptor affinity, rat membranes. As to the method:
The hippocampus from male Sprague-Dawley rats was homogenized in 10 volumes of 0.32 M sucrose, centrifuged at 1000 x g for 10 min, and the supernatant was centrifuged at 17,000 x g for 20 min. The synaptosoma! fraction (P₂) pellet was homogenized in 50 volumes of 20 mM Tris-Cl buffer, pH 7.4, and centrifuged at 50,000 x g for 10 min. After resuspension in buffer, the suspension was preincubated for 30 min at 4 °C, and centrifuged again. The pellet was resuspended in 3 volumes of buffer and frozen at -70 °C until used.
For oxotremorine-M binding, the homogenates were incubated at 25 °C for 15 min. After incubation, the homogenates were filtered through Whatman GF/C filters with vacuum. The filters were rinsed 3X with 1 mL of cold buffer and placed in scintillation vials containing Ready Protein+ (Beckman) scintillation fluid. Radioactivity trapped on the filters was determined by liquid scintillation spectrometry. Non specific binding was determined using 1 µM atropine.
The concentration of compound required to inhibit binding 50% (IC₅₀) was calculated using the ALLFIT program.

The target of the next assay is nicotinic receptors (Rattus norvegicus, UniProt P09483+P12390). As to the kind of experiment: [3H]N-methyl-carbamyl choline ([3H]MCC) binding to rat brain cortical membranes. The note with it: selectivity for nicotinic over muscarinic receptors. As to the method: Binding to rat brain nicotinic receptors was performed using the method of Abood and Grassi. Abood, L.E. et al., Biochem. Pharmacol. 35:4199-4202 (1987). Frozen rat brain cortices (Pel-Freez Biologicals, Roger, AR) were homogenized using a Polytron (Binkmann PT-10; setting 6 for 15 sec) in 30 volumes of buffer (50 mM tris, 120 mM sodium chloride, 5 mM potassium chloride, 2 mM calcium chloride, 1 mM magnesium chloride, pH 7.3 at 4°C). The homogenate was centrifuged at 1,000 xg for 10 min. (Sorval RC-5B; SA600 rotor). The supernatant was then centrifuged at 40,000 xg for 20 min. The final pellet was resuspended in buffer at a concentration of 12 vol./gram wet weight of tissue. Final protein concentrations for each assay were determined using the Lowry et al. method. Lowry, O.H. et al., J. Biol. Chem. 193:265-275 (1951).
Sequence of nicotinic receptors (P09483 31-630): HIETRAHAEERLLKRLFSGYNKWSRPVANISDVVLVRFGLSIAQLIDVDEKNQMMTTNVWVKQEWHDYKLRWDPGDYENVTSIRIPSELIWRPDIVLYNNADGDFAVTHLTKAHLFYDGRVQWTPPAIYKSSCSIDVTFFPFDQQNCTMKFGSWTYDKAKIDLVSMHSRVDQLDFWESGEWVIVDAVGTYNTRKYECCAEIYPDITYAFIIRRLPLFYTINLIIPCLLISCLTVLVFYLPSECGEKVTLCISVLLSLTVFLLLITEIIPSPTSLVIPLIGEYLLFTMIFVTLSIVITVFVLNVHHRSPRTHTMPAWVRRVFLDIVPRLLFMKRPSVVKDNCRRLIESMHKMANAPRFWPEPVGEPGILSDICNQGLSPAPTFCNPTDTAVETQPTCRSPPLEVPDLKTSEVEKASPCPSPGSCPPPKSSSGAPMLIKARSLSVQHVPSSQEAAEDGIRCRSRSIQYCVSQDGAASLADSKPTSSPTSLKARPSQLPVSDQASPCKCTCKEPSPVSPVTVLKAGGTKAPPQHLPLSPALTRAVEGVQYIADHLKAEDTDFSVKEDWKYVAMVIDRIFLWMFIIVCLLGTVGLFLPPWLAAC
Sequence of nicotinic receptors (P12390 25-500): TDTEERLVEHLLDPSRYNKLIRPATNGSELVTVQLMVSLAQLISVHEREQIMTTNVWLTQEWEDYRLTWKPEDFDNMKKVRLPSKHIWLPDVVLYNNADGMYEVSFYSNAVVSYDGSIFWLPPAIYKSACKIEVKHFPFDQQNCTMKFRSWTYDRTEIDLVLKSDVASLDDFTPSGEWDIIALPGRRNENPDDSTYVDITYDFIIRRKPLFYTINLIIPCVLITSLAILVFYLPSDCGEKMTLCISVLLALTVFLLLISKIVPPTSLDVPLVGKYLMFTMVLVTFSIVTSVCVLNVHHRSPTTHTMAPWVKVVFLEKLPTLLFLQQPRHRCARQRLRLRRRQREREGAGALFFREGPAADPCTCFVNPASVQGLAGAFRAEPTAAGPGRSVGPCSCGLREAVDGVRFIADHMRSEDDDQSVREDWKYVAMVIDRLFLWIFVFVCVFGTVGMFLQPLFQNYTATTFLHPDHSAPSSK
[³H]N-Methyl-carbamyl choline iodide ([³H]MCC) binding to rat cortices was measured by filtration. Compounds dissolved in distilled water at concentrations of 1 nM to 1 mM, were incubated with [³H]MCC (1 nM), membrane aliquots (approximately 1.5 mg./ml. protein) and buffer, in a final volume of 0.5 ml. […] Nonspecific [³H]MCC binding was determined in the presence of 10 mM nicotine. […]
Radioactivity bound was determined after a period of equilibration (at least 5 hr) in Beckman Ready Protein Scintillation Cocktail using a Beckman LS5000 TA counter with an efficiency of 43%. […]

Turning to “1-methyl-4-acetyl-1,2,3,6-tetrahydropyridine [isoarecolone methiodide]”, the “agonist which binds to nicotinic and muscarinic receptors” value in assay [1] is “very potent agonist”. Moreover, the “nicotine-like discriminative stimulus effects” value in the assay with rats was “produce nicotine-like discriminative stimulus effects”. `CCC(C)C(=O)C1=CCN(C)CC1` (stereo not drawn) [Example 11, 1-(1,2,3.6-Tetrahydro-1-methyl-4-pyridinyl)-2-methylbutanone] yielded an inhibition constant (Ki) at muscarinic receptors of 4.79 µM. With `CN1CC=C(C(=O)C(C)(C)C)CC1` [Example 12, 1-(1,2,3,6-Tetrahydro-1-methyl-4-pyridinyl)-2,2-dimethylpropanone], at nicotinic receptors, the “Ki Ratio OXO/MCC” value amounted to 110. Moreover, the Ki at muscarinic receptors turned out to be 6.25 µM. Turning to `CC(=O)C1=CCN(C)CC1` [isoarecolone HCl], the “nicotine-like discriminative stimulus effects” value in the assay with rats is recorded as “produce nicotine-like discriminative stimulus effects”.

These data come from EP0537993A1, “Nicotinic activity of a series of arecolones and isoarecolones” (ELI LILLY AND COMPANY, priority 1991, dated 1993).
